This passage reports mortality results from ChEMBL document CHEMBL3046536, “Synthesis, crystal structure, and insecticidal activity of novel N-alkyloxyoxalyl derivatives of 2-arylpyrrole” (2008).

What all share (type): functional
Experiment [1] has as its system Mythimna separata. The experiment is described as follows: Insecticidal activity against Mythimna separata (Oriental armyworm) fourth-instar larvae infested compound pre-treated corn leaves assessed as insect mortality at 10 mg/kg measured 2 days post compound treatment.
For experiment [2], the system named is Tetranychus cinnabarinus. The experiment is described as follows: Insecticidal activity against Tetranychus cinnabarinus (carmine spider mite) infested on Sieva bean plants leaves exposed to compound formulation at 100 mg/kg assessed as insect mortality measured 2 days post compound treatment. The settings on record: 48 h.
The subject of experiment [3] is Culex pipiens pallens. The experiment is described as follows: Insecticidal activity against Culex pipiens pallens (mosquito) fourth-instar larvae assessed as insect mortality at 0.1 mg/kg measured 2 days post compound treatment. Conditions: 48 h.
Experiment [4] concerns Culex pipiens pallens. The experiment is described as follows: Insecticidal activity against Culex pipiens pallens (mosquito) fourth-instar larvae assessed as insect mortality at 0.25 mg/kg measured 2 days post compound treatment. The settings on record: 48 h.
Experiment [5] deals with Mythimna separata. The experiment is described as follows: Insecticidal activity against Mythimna separata (Oriental armyworm) fourth-instar larvae infested compound pre-treated corn leaves assessed as insect mortality at 20 mg/kg measured 2 days post compound treatment.
The subject of experiment [6] is Culex pipiens pallens. Put plainly: Insecticidal activity against Culex pipiens pallens (mosquito) fourth-instar larvae assessed as insect mortality at 0.5 mg/kg measured 2 days post compound treatment. The settings on record: 48 h.
Experiment [7] has as its system Tetranychus cinnabarinus. The experiment is described as follows: Insecticidal activity against Tetranychus cinnabarinus (carmine spider mite) infested on Sieva bean plants leaves exposed to compound formulation at 200 mg/kg assessed as insect mortality measured 2 days post compound treatment. Conditions: 48 h.

As a reminder, the mortality is the percentage killed. As for `N#Cc1c(Br)c(C(F)(F)F)n(COC(=O)C(=O)NC2CCCCC2)c1-c1ccc(Cl)cc1`, the mortality at 10 mg/kg in the experiment with Mythimna separata [1] came to 20%. Moreover, the mortality at 100 mg/kg in the experiment on Tetranychus cinnabarinus [2] was 46%. The mortality at 0.1 mg/kg in the experiment on Culex pipiens pallens [3] stood at 20%. In addition, in the experiment with Culex pipiens pallens [4], the mortality at 0.25 mg/kg worked out at 90%. Also, in the experiment with Mythimna separata [5], the mortality at 20 mg/kg worked out at 100%. In addition, in the experiment with Culex pipiens pallens [6], the mortality at 0.5 mg/kg is 100%. In addition, the mortality at 200 mg/kg in the experiment with Tetranychus cinnabarinus [7] turned out to be 76%.
On to `Cc1ccccc1NC(=O)C(=O)OCn1c(-c2ccc(Cl)cc2)c(C#N)c(Br)c1C(F)(F)F`, for which the mortality at 10 mg/kg with Mythimna separata [1] worked out at 10%. In addition, the mortality at 0.1 mg/kg with Culex pipiens pallens [3] came to 100%. Further, in the experiment on Culex pipiens pallens [4], the mortality at 0.25 mg/kg was found to be 100%. In addition, the mortality at 20 mg/kg in the experiment on Mythimna separata [5] was determined as 100%. Besides, the mortality at 0.5 mg/kg with Culex pipiens pallens [6] was determined as 100%.
For the compound `N#Cc1c(Br)c(C(F)(F)F)n(COC(=O)C(=O)Nc2ccccc2Cl)c1-c1ccc(Cl)cc1`, in the experiment on Mythimna separata [1], the mortality at 10 mg/kg turned out to be 30%. The mortality at 100 mg/kg in the experiment with Tetranychus cinnabarinus [2] is 51%. In addition, in the experiment on Mythimna separata [5], the mortality at 20 mg/kg is 100%. For the same compound, the mortality at 200 mg/kg in the experiment with Tetranychus cinnabarinus [7] was determined as 71%.
With `CC(C)(C)OC(=O)C(=O)OCn1c(-c2ccc(Cl)cc2)c(C#N)c(Br)c1C(F)(F)F`, the mortality at 10 mg/kg with Mythimna separata [1] was determined as 10%. The mortality at 20 mg/kg in the experiment with Mythimna separata [5] stood at 100%.
Regarding `N#Cc1c(Br)c(C(F)(F)F)n(COC(=O)C(=O)OC2CCCCC2)c1-c1ccc(Cl)cc1`, in the experiment on Mythimna separata [1], the mortality at 10 mg/kg turned out to be 20%. Moreover, the mortality at 0.1 mg/kg in the experiment on Culex pipiens pallens [3] was found to be 20%. Moreover, the mortality at 0.25 mg/kg in the experiment with Culex pipiens pallens [4] is 90%. Besides, the mortality at 20 mg/kg in the experiment on Mythimna separata [5] came to 100%. Further, the mortality at 0.5 mg/kg with Culex pipiens pallens [6] amounted to 100%.
On to `C/C=C/OC(=O)C(=O)OCn1c(-c2ccc(Cl)cc2)c(C#N)c(Br)c1C(F)(F)F`, for which, in the experiment with Mythimna separata [1], the mortality at 10 mg/kg was 30%. In addition, the mortality at 0.1 mg/kg in the experiment with Culex pipiens pallens [3] came out at 80%. In addition, in the experiment on Culex pipiens pallens [4], the mortality at 0.25 mg/kg came out at 100%. Besides, the mortality at 20 mg/kg with Mythimna separata [5] came out at 100%. Further, the mortality at 0.5 mg/kg in the experiment with Culex pipiens pallens [6] is 100%.
In the case of `CCOCCOC(=O)C(=O)OCn1c(-c2ccc(Cl)cc2)c(C#N)c(Br)c1C(F)(F)F`, the mortality at 10 mg/kg in the experiment with Mythimna separata [1] amounted to 20%. Moreover, the mortality at 0.1 mg/kg with Culex pipiens pallens [3] worked out at 80%. The mortality at 0.25 mg/kg in the experiment with Culex pipiens pallens [4] was 100%. In the experiment with Mythimna separata [5], the mortality at 20 mg/kg turned out to be 100%. In the experiment on Culex pipiens pallens [6], the mortality at 0.5 mg/kg stood at 100%.
`CCCNC(=O)C(=O)OCn1c(-c2ccc(Cl)cc2)c(C#N)c(Br)c1C(F)(F)F`: the mortality at 10 mg/kg with Mythimna separata [1] was determined as 25%. Further, in the experiment with Culex pipiens pallens [3], the mortality at 0.1 mg/kg was found to be 80%. For the same compound, the mortality at 0.25 mg/kg with Culex pipiens pallens [4] was found to be 100%. Besides, in the experiment on Mythimna separata [5], the mortality at 20 mg/kg is 100%. The mortality at 0.5 mg/kg with Culex pipiens pallens [6] amounted to 100%.
`CCC(C)NC(=O)C(=O)OCn1c(-c2ccc(Cl)cc2)c(C#N)c(Br)c1C(F)(F)F` (configuration not stated): in the experiment with Mythimna separata [1], the mortality at 10 mg/kg amounted to 30%. For the same compound, in the experiment on Mythimna separata [5], the mortality at 20 mg/kg turned out to be 100%.
On to `CC(C)(C)NC(=O)C(=O)OCn1c(-c2ccc(Cl)cc2)c(C#N)c(Br)c1C(F)(F)F`, for which the mortality at 10 mg/kg in the experiment on Mythimna separata [1] was found to be 20%. For the same compound, in the experiment on Culex pipiens pallens [3], the mortality at 0.1 mg/kg turned out to be 10%. For the same compound, the mortality at 0.25 mg/kg in the experiment on Culex pipiens pallens [4] stood at 30%. For the same compound, the mortality at 20 mg/kg in the experiment with Mythimna separata [5] was found to be 100%. In addition, in the experiment on Culex pipiens pallens [6], the mortality at 0.5 mg/kg is 100%.
In the case of `COC(=O)C(=O)OCn1c(-c2ccc(Cl)cc2)c(C#N)c(Br)c1C(F)(F)F`, the mortality at 10 mg/kg in the experiment with Mythimna separata [1] amounted to 15%. Besides, the mortality at 20 mg/kg with Mythimna separata [5] was 100%.
On to `CCOC(=O)C(=O)OCn1c(-c2ccc(Cl)cc2)c(C#N)c(Br)c1C(F)(F)F`, for which the mortality at 10 mg/kg with Mythimna separata [1] turned out to be 80%. Moreover, the mortality at 20 mg/kg with Mythimna separata [5] amounted to 100%.
Regarding `CC(C)OC(=O)C(=O)OCn1c(-c2ccc(Cl)cc2)c(C#N)c(Br)c1C(F)(F)F`, the mortality at 10 mg/kg with Mythimna separata [1] was determined as 70%. For the same compound, the mortality at 0.1 mg/kg with Culex pipiens pallens [3] stood at 20%. Besides, the mortality at 0.25 mg/kg in the experiment with Culex pipiens pallens [4] was found to be 100%. For the same compound, the mortality at 20 mg/kg with Mythimna separata [5] worked out at 100%. For the same compound, in the experiment with Culex pipiens pallens [6], the mortality at 0.5 mg/kg was 100%. Further, the mortality at 200 mg/kg with Tetranychus cinnabarinus [7] came to 100%.
Take `CCCCOC(=O)C(=O)OCn1c(-c2ccc(Cl)cc2)c(C#N)c(Br)c1C(F)(F)F`: the mortality at 10 mg/kg in the experiment on Mythimna separata [1] worked out at 100%. Besides, the mortality at 20 mg/kg in the experiment with Mythimna separata [5] was 100%.
